In brackets after ≈: the same amount, converted by molar mass. Activity calls are given as the source filed them. The rule behind the calls is not given here.
Columns and labels:
[1] = Stability of compound in cysteine at pH 7.4 assessed as parent compound remaining at 10 mM and measured after 24 hrs by HPLC-UV analysis; format: physicochemical; conditions: cysteine solution, read-out: Stability
[2] = Stability in rat hepatocytes assessed as intrinsic clearance at 1 uM incubated for 1 hr by HPLC-MS/MS analysis; format: ADME, cell-based, Hepatocyte; conditions: read-out: CLH (converted)
[3] = Tmax in NMRI-nu/nu mouse at 100 mg/kg,po measured upto 24 hrs by HPLC-MS/MS analysis; format: ADME, organism-based; conditions: in vivo
[4] = biological target: T1, Peroxisome proliferator-activated receptor gamma (Mus musculus) (UniProt P37238); test: Inverse agonist activity at PPARgamma in NMRI-nu/nu mouse assessed as decrease in Acaab1 mRNA expression in adipose tissue at 50 mg/kg for 3 days and measured upto 15 hrs last dose by qPCR analysis; format: organism-based; conditions: filed as inverse agonist, time 3.0 day
T1 sequence (whole entry): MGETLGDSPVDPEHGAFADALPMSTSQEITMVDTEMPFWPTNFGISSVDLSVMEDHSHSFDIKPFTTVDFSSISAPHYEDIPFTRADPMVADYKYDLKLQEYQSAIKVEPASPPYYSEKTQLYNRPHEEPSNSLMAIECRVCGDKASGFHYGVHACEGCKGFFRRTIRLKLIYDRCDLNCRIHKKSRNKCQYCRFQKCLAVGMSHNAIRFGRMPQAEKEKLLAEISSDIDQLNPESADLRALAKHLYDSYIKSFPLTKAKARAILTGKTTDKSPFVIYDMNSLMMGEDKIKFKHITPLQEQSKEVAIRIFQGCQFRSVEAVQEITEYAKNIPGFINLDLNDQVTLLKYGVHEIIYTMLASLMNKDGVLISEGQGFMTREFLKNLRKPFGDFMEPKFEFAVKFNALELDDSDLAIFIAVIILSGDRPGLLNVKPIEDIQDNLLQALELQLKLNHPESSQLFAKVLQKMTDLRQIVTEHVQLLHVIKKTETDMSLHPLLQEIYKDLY

[5] = Thermodynamic solubility of compound at pH 6.5 PBS buffer; format: physicochemical; conditions: read-out: Therm_solubility
[6] = Stability of compound in GSH at pH 7.4 assessed as parent compound remaining at 10 mM and measured after 24 hrs by HPLC-UV analysis; format: physicochemical; conditions: GSH solution, read-out: Stability
[7] = AUClast in Wistar rat at 0.3 mg/kg,iv measured upto 24 hrs by HPLC-MS/MS analysis; format: ADME, organism-based; design: dose 0.3 mg/kg, time < 24 hrs, route iv; conditions: in vivo
[8] = Volume of distribution at steady state in Wistar rat at 0.3 mg/kg,iv measured upto 24 hrs by HPLC-MS/MS analysis; format: ADME, organism-based; conditions: in vivo, read-out: Vdss
[9] = biological target: T1, Peroxisome proliferator-activated receptor gamma (Mus musculus); test: Inverse agonist activity at PPARgamma in NMRI-nu/nu mouse assessed as reduction in Fabp4 mRNA expression in adipose tissue at 50 mg/kg for 3 days and measured 6 hrs last dose by qPCR analysis; format: organism-based; conditions: time 3.0 day
[10] = Stability of compound in GSH at pH 7.4 assessed as parent compound remaining at 10 mM and measured after 1 hrs by HPLC-UV analysis; format: physicochemical; conditions: GSH solution, read-out: Stability
[11] = biological target: T1, Peroxisome proliferator-activated receptor gamma (Mus musculus); test: Inverse agonist activity at PPARgamma in NMRI-nu/nu mouse assessed as fold reduction in Fabp4 mRNA expression in adipose tissue at 50 mg/kg for 3 days and measured 15 hrs last dose by qPCR analysis; format: organism-based; conditions: filed as inverse agonist, time 3.0 day
[12] = Stability of compound in GSH at pH 7.4 assessed as parent compound remaining at 10 mM and measured after 4 hrs by HPLC-UV analysis; format: physicochemical; conditions: GSH solution, read-out: Stability
[13] = Stability of compound in cysteine at pH 7.4 assessed as parent compound remaining at 10 mM and measured after 4 hrs by HPLC-UV analysis; format: physicochemical; conditions: cysteine solution, read-out: Stability
[14] = Microsomal stability in human liver microsomes assessed as intrinsic clearance at 1 uM measured upto 60 mins in presence of NADPH by HPLC-MS/MS analysis; format: ADME, Microsome; conditions: read-out: CLH (converted)
[15] = Apparent permeability across basolateral to apical side in human Caco-2 cells at 2 uM incubated for 2 hrs by LC-MS/MS analysis; format: ADME, cell-based
[16] = Cmax in NMRI-nu/nu mouse at 100 mg/kg,po measured upto 24 hrs by HPLC-MS/MS analysis; format: ADME, organism-based; design: time < 24 hrs, dose 100 mg/kg, route po; conditions: in vivo
[17] = Stability of compound in cysteine at pH 7.4 assessed as parent compound remaining at 10 mM and measured after 2 hrs by HPLC-UV analysis; format: physicochemical; conditions: cysteine solution, read-out: Stability
[18] = biological target: T2, Nuclear receptor subfamily 1 group I member 2 (Homo sapiens, UniProt O75469); test: Transactivation of human PXR in human HepG2 cells co-expressing luciferase gene under control of CYP3A4 promoter assessed as increase in luciferase activity incubated for 24 hrs by luminescence based analysis; format: ADME, cell-based
T2 sequence (O75469 whole entry): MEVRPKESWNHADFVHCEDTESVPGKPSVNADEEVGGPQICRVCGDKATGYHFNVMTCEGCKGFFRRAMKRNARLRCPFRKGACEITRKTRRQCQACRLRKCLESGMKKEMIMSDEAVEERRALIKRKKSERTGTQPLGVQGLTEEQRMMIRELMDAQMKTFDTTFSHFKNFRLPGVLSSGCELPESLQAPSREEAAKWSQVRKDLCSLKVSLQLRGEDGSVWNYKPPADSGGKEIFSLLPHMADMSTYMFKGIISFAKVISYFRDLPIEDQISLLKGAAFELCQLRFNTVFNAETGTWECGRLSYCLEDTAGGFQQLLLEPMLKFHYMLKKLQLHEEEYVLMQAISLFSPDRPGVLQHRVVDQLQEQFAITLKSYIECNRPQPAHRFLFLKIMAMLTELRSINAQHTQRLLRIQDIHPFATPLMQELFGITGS

[19] = AUClast in NMRI-nu/nu mouse at 100 mg/kg,po measured upto 24 hrs by HPLC-MS/MS analysis; format: ADME, organism-based; design: time < 24 hrs, dose 100 mg/kg, route po; conditions: in vivo
[20] = Stability of compound in cysteine at pH 7.4 assessed as parent compound remaining at 10 mM and measured after 1 hrs by HPLC-UV analysis; format: physicochemical; conditions: cysteine solution, read-out: Stability
[21] = Antiproliferative activity against human UM-UC-9 assessed as inhibition of cell proliferation by measuring maximum efficacy after 7 days by IncuCyte live-cell imaging assay; format: functional; conditions: UM-UC-9, 168 h, time 7 day
[22] = Clearance in Wistar rat at 0.3 mg/kg,iv measured upto 24 hrs by HPLC-MS/MS analysis; format: ADME, organism-based; conditions: in vivo
[23] = biological target: T1, Peroxisome proliferator-activated receptor gamma (Mus musculus); test: Inverse agonist activity at PPARgamma in NMRI-nu/nu mouse assessed as reduction in Fabp4 mRNA expression in adipose tissue at 100 mg/kg for 3 days and measured 6 hrs last dose by qPCR analysis; format: organism-based; conditions: time 3.0 day
[24] = Antiproliferative activity against human UM-UC-9 assessed as inhibition of cell proliferation measured after 7 days by IncuCyte live-cell imaging assay; conditions: UM-UC-9, 168 h
[25] = Half life in Wistar rat at 0.3 mg/kg,iv measured upto 24 hrs by HPLC-MS/MS analysis; format: ADME, organism-based; conditions: in vivo
[26] = Stability of compound in GSH at pH 7.4 assessed as parent compound remaining at 10 mM and measured after 2 hrs by HPLC-UV analysis; format: physicochemical; conditions: GSH solution, read-out: Stability
[27] = Half life in Wistar rat at 1 mg/kg,iv measured upto 24 hrs by HPLC-MS/MS analysis; format: ADME, organism-based; conditions: in vivo
[28] = AUClast in Wistar rat at 1 mg/kg,iv measured upto 24 hrs by HPLC-MS/MS analysis; format: ADME, organism-based; design: time < 24 hrs, dose 1 mg/kg, route iv; conditions: in vivo
[29] = Volume of distribution at steady state in Wistar rat at 1 mg/kg,iv measured upto 24 hrs by HPLC-MS/MS analysis; format: ADME, organism-based; conditions: in vivo, read-out: Vdss
[30] = biological target: T1, Peroxisome proliferator-activated receptor gamma (Mus musculus); test: Inverse agonist activity at PPARgamma in NMRI-nu/nu mouse assessed as decrease in Acaab1 mRNA expression in adipose tissue at 100 mg/kg for 3 days and measured upto 15 hrs last dose by qPCR analysis; format: organism-based; conditions: filed as inverse agonist, time 3.0 day
[31] = Clearance in Wistar rat at 1 mg/kg,iv measured upto 24 hrs by HPLC-MS/MS analysis; format: ADME, organism-based; conditions: in vivo

| remaining at 24 h, 10000 µM [1] | CLint scaled at 1 µM [2] | Tmax [3] | solubility thermodynamic [5] | remaining at 24 h, 10000 µM [6] | remaining at 1 h, 10000 µM [10] | remaining at 4 h, 10000 µM [12] | remaining at 4 h, 10000 µM [13] | CLint scaled at 1 µM [14] | Papp B→A at 2 h, 2 µM [15] | Cmax [16] | remaining at 2 h, 10000 µM [17] | IC50 [18] | AUC(0-t) at 24 h [19] | remaining at 1 h, 10000 µM [20] | Activity [23] | remaining at 2 h, 10000 µM [26] | SMILES | Emax [21] | IC50 [24] | further results |
| --- | --- | --- | --- | --- | --- | --- | --- | --- | --- | --- | --- | --- | --- | --- | --- | --- | --- | --- | --- | --- |
| 51.6% | 28.8 mL/min/kg | 7 h | 0.1 µg/mL (≈ 0.208 µM) | 32% | 74.8% | 46.5% | 71% | 12.7 mL/min/kg | 23.8 ×10⁻⁶ cm/s | 2100 nM | 77.8% | 14700 nM | 12000 ng·h/mL | 93% | inactive | 56.4% | Cc1cc(OC(F)F)ccc1NC(=O)c1cc(C(=O)NCc2ccc(F)cc2)c(F)cc1Cl | 55% | 19.4 nM | Activity [4]: Active; AUClast [7]: 1.6 kg·h/L; Vd [8]: 2.7 L/kg; Activity [9]: inactive; Activity [11]: Active; clearance [22]: 10.3 mL/min/kg; half-life [25]: 4.8 h |
| 100% | 29.3 mL/min/kg | 1 h | 6.55 µg/mL (≈ 13.7 µM) | 100% | 100% | 100% | 100% | 15.5 mL/min/kg | 17.1 ×10⁻⁶ cm/s | 3.2 nM | 100% | > 49800 nM | 1900 ng·h/mL | 100% | inactive | 100% | CC(C)(O)c1ccc(NC(=O)c2cc(C(=O)NCc3ccc(F)c(F)c3)c(F)cc2Cl)cc1 | 71% | 40.4 nM | half-life [27]: 0.19 h; AUClast [28]: 0.18 kg·h/L; Vd [29]: 1.8 L/kg; Activity [30]: Active; clearance [31]: 93.3 mL/min/kg |

Reference: ChEMBL document CHEMBL5236643, “Discovery and characterization of orally bioavailable 4-chloro-6-fluoroisophthalamides as covalent PPARG inverse-agonists” (Bioorg Med Chem, 2023)
